Assay results from patent publication US5686482A, “N-(3-pyrrolidinyl) benzamide derivative” (priority 1994, dated 1997).
pKi: −log10 of the molar value. Read-outs that look alike come from different tables or passages of the source.

How the values were obtained:
schizophrenia patients = settings: cited from earlier work
[1] = tested on: apomorphine-induced climbing behavior; assay: antagonism test on apomorphine-induced climbing behavior; assay type: in vivo; settings: Mus musculus; SC administration, 15 minutes before apomorphine 2 mg/kg SC; ICR mice; measured during 30 minutes
Experimental: 2) Antagonism test on apomorphine-induced climbing behavior
Each test compound was administered to ICR mice (body weight, around 35 g; Japan SLC) by subcutaneous injection and, after 15 minutes, apomorphine (2 mg/kg) was subcutaneously injected.

D4 receptor = target: T1, D4 receptor (Homo sapiens, UniProt P21917); assay: receptor binding test, D4 receptor; settings: for pKi: cloned receptor membrane, [125I]iodosulpride or [3H]YM-09151-2, 25° C., 1 hour; for Ratio D2/D4: ratio of Ki values
T1 sequence (P21917 1-419): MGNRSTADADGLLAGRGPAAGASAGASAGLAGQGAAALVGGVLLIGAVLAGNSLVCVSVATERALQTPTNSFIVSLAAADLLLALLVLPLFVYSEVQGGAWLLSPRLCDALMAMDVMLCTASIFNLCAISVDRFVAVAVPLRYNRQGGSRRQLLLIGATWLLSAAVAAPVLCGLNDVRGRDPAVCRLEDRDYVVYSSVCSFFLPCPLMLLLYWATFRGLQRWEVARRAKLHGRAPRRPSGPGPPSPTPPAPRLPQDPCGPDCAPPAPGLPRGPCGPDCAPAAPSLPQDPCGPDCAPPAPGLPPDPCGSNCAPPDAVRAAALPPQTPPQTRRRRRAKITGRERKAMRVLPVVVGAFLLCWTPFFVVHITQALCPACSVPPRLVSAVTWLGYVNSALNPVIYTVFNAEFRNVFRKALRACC

D3 receptor = target: T2, D3 receptor (Rattus norvegicus, UniProt P19020); assay: receptor binding test, D3 receptor; settings: for pKi: cloned receptor membrane, [125I]iodosulpride or [3H]YM-09151-2, 25° C., 1 hour; for Ratio D2/D3: ratio of Ki values
T2 construct: expressed in transfected cells
Experimental: Using membrane samples of these cells, affinity of compounds for D2 receptor, D3 receptor and D4 receptor was examined by a receptor binding test. The receptor binding test was carried out in the following manner. A D2 receptor, D3 receptor or D4 receptor membrane sample and [^125 I] iodosulpride or [^3 H] YM-09151-2 (trade name, manufactured by Daiichi Pure Chemicals) were incubated at 25° C. for 1 hour in the presence of each compound to be tested. The reaction solution was filtered through a glass filter to measure the amount of radioisotope on the filter.

D2 receptor = target: T3, D2 receptor (Rattus norvegicus, UniProt P61169); assay: receptor binding test, D2 receptor; settings: cloned receptor membrane, [125I]iodosulpride or [3H]YM-09151-2, 25° C., 1 hour
T3 construct: expressed in transfected cells

[2] = tested on: D2, D3 and D4 subtype receptors; settings: existing antipsychotic agents; cited from earlier work

T3 sequence (P61169 whole entry): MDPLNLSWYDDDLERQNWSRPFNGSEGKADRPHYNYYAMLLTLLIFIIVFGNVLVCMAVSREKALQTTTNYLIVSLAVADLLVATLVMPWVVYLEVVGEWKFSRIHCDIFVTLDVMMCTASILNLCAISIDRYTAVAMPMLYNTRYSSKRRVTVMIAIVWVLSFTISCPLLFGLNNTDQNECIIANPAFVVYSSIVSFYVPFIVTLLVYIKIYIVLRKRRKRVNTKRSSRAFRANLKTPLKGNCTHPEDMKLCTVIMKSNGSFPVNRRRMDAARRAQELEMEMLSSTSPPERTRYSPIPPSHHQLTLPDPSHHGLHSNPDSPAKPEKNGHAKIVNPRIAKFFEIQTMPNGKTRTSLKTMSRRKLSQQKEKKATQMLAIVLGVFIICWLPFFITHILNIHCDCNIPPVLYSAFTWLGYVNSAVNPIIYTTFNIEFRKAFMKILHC
T2 sequence (P19020 whole entry): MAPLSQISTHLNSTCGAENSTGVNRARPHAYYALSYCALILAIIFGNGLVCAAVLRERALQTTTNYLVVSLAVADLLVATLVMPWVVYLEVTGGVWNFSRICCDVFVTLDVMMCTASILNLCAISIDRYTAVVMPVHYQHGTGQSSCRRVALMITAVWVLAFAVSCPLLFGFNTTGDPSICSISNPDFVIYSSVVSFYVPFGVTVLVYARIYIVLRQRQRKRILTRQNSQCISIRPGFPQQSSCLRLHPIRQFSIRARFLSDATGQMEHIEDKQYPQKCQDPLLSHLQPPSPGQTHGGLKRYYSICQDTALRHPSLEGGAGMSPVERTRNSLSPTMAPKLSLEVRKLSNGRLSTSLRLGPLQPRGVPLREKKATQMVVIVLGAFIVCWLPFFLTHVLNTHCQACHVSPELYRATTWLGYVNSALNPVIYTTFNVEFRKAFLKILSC

| SMILES | effect on negative symptoms (schizophrenia patients; clinical) | side effects such as extrapyramidal symptoms (schizophrenia patients; clinical) | ED50 [1] [mg/kg] | pKi (D4 receptor) | Ratio D2/D4 (D4 receptor) | pKi (D3 receptor) | Ratio D2/D3 (D3 receptor) | pKi (D2 receptor) | relative affinity for D2, D3 and/or D4 receptor [2] | side effects such as extrapyramidal symptoms (schizophrenia patients; human, in vivo) |
| --- | --- | --- | --- | --- | --- | --- | --- | --- | --- | --- |
| CN1CCN(C2=Nc3cc(Cl)ccc3Nc3ccccc32)CC1 [Clozapine] | effective for patients mainly having negative symptoms | small extrapyramidal symptoms | 6.8 | – | – | – | – | – | – | – |
| COc1cc(OC)c([N+](=O)[O-])cc1C(=O)N[C@H]1CCN(C2C3CCCC2CCC3)C1 (stereo partly drawn) [Example 7, (S)-N-[1-(bicyclo[3.3.1]non-9-yl)-3-pyrrolidinyl]-2,4-dimethoxy-5-nitrobenzamide] | – | – | – | 8.96 | 65 | 8.82 | 48 | 7.14 | – | – |
| COc1cc(OC)c(C(=O)N[C@H]2CCN(C3C4CCCC3CCC4)C2)cc1C#N (stereo partly drawn) [Example 19, (S)-N-[1-(bicyclo[3.3.1]non-9-yl)-3-pyrrolidinyl]-5-cyano-2,4-dimethoxybenzamide] | – | – | – | 8.59 | 135 | 8.40 | 88 | 6.46 | – | – |
| CNc1cc(C(=O)N[C@H]2CCN(C3C4CCCC3CCC4)C2)c(OC)cc1OC (stereo partly drawn) [Example 30, (S)-N-[1-(bicyclo[3.3.1]non-9-yl)-3-pyrrolidinyl]-2,4-dimethoxy-5-methylaminobenzamide hemifumarate] | – | – | 1.8 | 8.74 | 19 | 8.46 | 9.7 | 7.47 | – | – |
| O=C(CCCN1CCC(O)(c2ccc(Cl)cc2)CC1)c1ccc(F)cc1 [haloperidol] | – | highly frequent onset of side effects | – | – | – | – | – | – | high affinity for D2 receptor in comparison with D3 receptor and/or D4 receptor | – |
| CCN1CCCC1CNC(=O)c1cc(S(N)(=O)=O)ccc1OC (stereo not drawn) [sulpiride] | certain degree of effects on negative symptoms | – | – | – | – | – | – | – | its affinity for D3 and/or D4 receptor is similar to its affinity for D2 receptor | relatively small side effects |
